From patent US5175283A, “Azetidin-2-one derivatives as serine protease inhibitors” (Bristol-Myers Squibb Company, priority 1992, dated 1992)
pIC50: −log10 of the molar value. “And” between values parts separate entries of the source, which are not always exact repeats. Equal entries are not always repeated. Structures can show the parent of a compound that is named as a salt. Where two headings read alike, the source gives them in different places.

Assays:
[1] = target: T1, human α-thrombin (Homo sapiens, UniProt P00734); assay: Enzyme assay for the inhibition of thrombin (s-2238 substrate); type: biochemical; design: key to Thrombin k2 /ki (second order rate constant), cells with symbol *: *: not measurable; settings: for Thrombin k2 /ki (second order rate constant for inactivation of the enzyme) / Thrombin k2 /ki (second order rate constant), cells with symbol *: human α-thrombin; for Thrombin k2 /ki (second order rate constant for inactivation of the enzyme): s-2238, pH 7.4, room temperature; for pIC50: 3 min incubation of drug with enzyme, room temperature; for Thrombin k2 /ki (second order rate constant), cells with symbol *: * = not measurable
T1 construct: purified human α-thrombin dissolved in thrombin assay buffer
Description: 1. Enzyme Assays for the Inhibition of Thrombin The following reagents were used in these assays: Thrombin assay buffer: 145 mM NaCl, 5 mM KCl, 30 mM N-2-hydroxyethyl piperazine-N'-2-ethanesulfonic acid, pH 7.4, 1 mg/ml polyethylene glycol (PEG-8000). 3 mM D-Phe-Pip-Arg-p-nitroanilide (s-2238) in H2 O. 3 U/ml purified human α-thrombin dissolved in thrombin assay buffer. Inhibitors to be tested were dissolved in H2 O, methanol, or DMSO just prior to use. Assay Procedure To each well in a 96-well microtiter plate, 270 μl of assay buffer was added. Human α-thrombin (10 μl of 3 U/ml) was added, then 10 μl of inhibitor were added and mixed. The samples were incubated at room temperature for a defined period of time (3 min for initial IC50 determinations). The enzymic reaction was started with 10 μl of 3 mM s-2238 substrate and continued at room temperature. The change in optical density was measured at 405 nm. A kinetic microplate reader (Molecular Devices Corporation Vmax) was used to measure the change in optical density over time. Results are reported in Table 1 as IC50 values, i.e., the drug concentration in mole/liter which caused 50% inhibition of the enzyme activity (after incubation of the drug with the enzyme for 3 min). Alternatively, results are also reported in Table 1 expressed as k2 /ki which is the second order rate constant in per mole per minute for inactivation time of the enzyme [Kitz, et al., J. Biol. Chem., 237, 3245 (1962)].

[2] = target: T2, bovine pancreatic trypsin (Bos taurus, UniProt P00760); assay: Enzyme assay for the inhibition of trypsin (Z-Val-Gly-Arg-pNA substrate); type: biochemical
T2 construct: purified bovine pancreatic trypsin dissolved in trypsin assay buffer
T2 sequence (P00760 24-246): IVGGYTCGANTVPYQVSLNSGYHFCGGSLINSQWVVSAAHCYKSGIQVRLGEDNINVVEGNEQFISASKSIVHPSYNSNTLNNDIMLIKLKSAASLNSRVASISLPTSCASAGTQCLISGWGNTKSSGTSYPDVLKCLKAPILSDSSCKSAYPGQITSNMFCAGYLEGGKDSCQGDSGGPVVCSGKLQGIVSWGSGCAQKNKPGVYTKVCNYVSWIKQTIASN
Description: 2. Enzyme Assays for the Inhibition of Trypsin
(§1) The following reagents were used in these assays:
Trypsin assay buffer: 2 mM CaCl2, 50 mM Tris/Cl pH 8.0.
3 mM Z-Val-Gly-Arg-pNA (Chromzyme TRy) dissolved in H2 O.
6 μg/ml of purified bovine pancreatic trypsin dissolved in trypsin assay buffer.
Inhibitors to be tested were dissolved in H2 O, methanol or DMSO just prior to use.
To each well in a 96-well microtiter plate, 270 μl of assay buffer was added. Bovine trypsin (10 μl of 6 μg/ml) was added. Inhibitor (10 μl ) was added, mixed, and then incubated at room temperature for 3 min. The enzymic reaction was started with 10 μl of 3 mM Z-Val-Gly-Arg-pNA substrate. The change in optical density was measured at 405 nm at room temperature. A kinetic microplate reader (Molecular Devices Corporation Vmax) was used to measure the change in optical density over time.
Results are reported in Table 1 as IC50 values, i.e., the drug concentration in mole/liter which caused 50% inhibition of the enzyme activity (after incubation of the drug with the enzyme for 3 min).

[3] = target: T1, human α-thrombin; assay: Concentration required for doubling thrombin clotting time in human plasma; type: biochemical; settings: human citrated plasma, 10 U/ml human thrombin; read-out: ED50, drug concentration required to double clotting time
Description: Procedure for Determining the Concentration Required for Doubling Thrombin Clotting Time--Clotting Time Assays The following reagents were used in these assays: Owren's Veronal Buffer: 125 mM NaCl, 28.4 mM sodium barbital, pH 7.35. Human citrated plasma obtained from human volunteers or citrated plasma obtained from IP-dosed animals (prepared as described below). 10 NIH Units/ml human α-thrombin in thrombin buffer for use with human plasma. […] The blood was centrifuged at […] (480×g) for 15 min at room temperature (using a Sorvall RT 6000B centrifuge). The plasma was removed, pooled, and aliquoted into small tubes which were stored frozen for later use. Clotting Time Measurement Clotting times were determined by pipetting 0.1 ml of Owren's buffer (pre-warmed 37° C.) and 0.1 ml of human or rat plasma into yellow sample cuvettes. For studies with human plasma 10 U/ml human thrombin (10 ml) was placed in the reservoir assembly station of the MLA 700. (Medical Laboratory Automation, Electra 700 Reservoir Assembly). For rat studies, the human thrombin concentration was 25 U/ml. The cuvettes were vortexed and then placed on the MLA 700 sample wheel. The coagulation timer (MLA 700) automatically dispenses 0.1 ml human thrombin into the sample in each cuvette. Detection of the fibrin clot was determined optically by the MLA 700. Studies were performed to determine the concentration of drug which caused a doubling of the clotting time in human plasma. From standard curves of thrombin activity added to the sample versus the clotting time, the concentration of drug which caused a doubling of the thrombin clotting time corresponded to inhibition of approximately 1/2 of the added thrombin clotting activity. Results are reported in Table 1 as ED50 values, i.e., the drug concentration required to double clotting time.

[4] = system: Thrombin Induced Clotting Time; assay: Thrombin induced clotting time ex vivo in plasma of i.p. dosed rats; settings: rat, 50 mg/kg i.p.
Description: Procedure for Determining the Concentration Required for Doubling Thrombin Clotting Time--Clotting Time Assays
as §1
Owren's Veronal Buffer: 125 mM NaCl, 28.4 mM sodium barbital, pH 7.35.
Human citrated plasma obtained from human volunteers or citrated plasma obtained from IP-dosed animals (prepared as described below).
25 NIH Units/ml human α-thrombin in thrombin buffer for use with rat plasma.
Test compound was prepared just prior to dosing. Routinely the drugs are dissolved in water. Animals were dosed by i.p. injection.
After the appropriate time period, the animals were ether-anesthetized, and blood was drawn by cardiac puncture using 333 μl of 3.8% sodium citrate per 3 ml blood. After all of the samples were obtained, the tubes were centrifuged at 1,500 rpm for 15 min as described for the human blood samples.
Clotting Time Measurement
Clotting times were determined by pipetting 0.1 ml of Owren's buffer (pre-warmed 37° C.) and 0.1 ml of human or rat plasma into yellow sample cuvettes. For studies with human plasma 10 U/ml human thrombin (10 ml) was placed in the reservoir assembly station of the MLA 700. (Medical Laboratory Automation, Electra 700 Reservoir Assembly). For rat studies, the human thrombin concentration was 25 U/ml. The cuvettes were vortexed and then placed on the MLA 700 sample wheel. The coagulation timer (MLA 700) automatically dispenses 0.1 ml human thrombin into the sample in each cuvette. Detection of the fibrin clot was determined optically by the MLA 700.
In separate studies, two compounds, Compound XIX and Compound XI, were dosed 50 mg/kg I.P. to three rats in each study group. […] "Term" indicates "terminated sample" where a clot was unable to form after approximately 99 seconds. When this occurred, the animal plasma was diluted 1: 1 with control rat plasma and the sample tested again. If need, the animal plasma was diluted 1:4 and tested again.

[5] = 3 min incubation of drug with enzyme, room temperature, pH 8.0, read-out: Trypsin IC50
[6] = 0.5 hr. post dose, undiluted plasma, per animal

In the case of `CCS(=O)(=O)[C@H]1[C@H](CCCNC(=N)N)C(=O)N1C(C)=O` (relative stereo) [Compound X, trans-4-Ethylsulfonyl-3-quanidinopropyl-1-acetyl-2-azetidinone hydrochloride salt], the “Thrombin k2 /ki (second order rate constant for inactivation of the enzyme)” value [1] was 3.0 × 10^6 m^-1 min^-1.

For `CC(=O)N1C(=O)[C@@H](CCCNC(=N)N)[C@@H]1CCc1ccccc1` (relative stereo) [XV, trans-4-(2-Phenylethyl)-3-guanidinooropyl-1-acetyl-2azetidinone hydrochloride salt], the pIC50 [1] was 6.68, the “Thrombin k2 /ki (second order rate constant for inactivation of the enzyme)” value [1] was 1.5 × 10^6 m^-1 min^-1 and the pIC50 [2, 5] was 6.33. The IC (2-fold clotting time) [3] was 3 µM.

In the case of `COC(=O)[C@H]1[C@H](CCCCNC(=N)N)C(=O)N1S(=O)(=O)c1cccc2c(N(C)C)cccc12` (relative stereo) [XVII, trans-4-Methoxycarbonyl-3-(4-guanidinobutyl)-1-[(5-dimethylamino)-1-naphthalenesulfonyl]-2-azetidinone hydrochloride salt], the “Thrombin k2 /ki (second order rate constant for inactivation of the enzyme)” value [1] was 3.7 × 10^5 m^-1 min^-1 and the IC (2-fold clotting time) [3] was 50 µM.

With `CC(=O)N1C(=O)[C@H](CCCNC(=N)N)[C@@H]1C(=O)N1CCCCC1` (relative stereo) [XXIII, cis-4-(1-Piperidinocarbonyl)-3-guanidinopropyl-1-acetyl-2-azetidinone hydrochloride salt] the “Thrombin k2 /ki (second order rate constant for inactivation of the enzyme)” value [1] was 4.3 × 10^4 m^-1 min^-1 and the IC (2-fold clotting time) [3] was 20 µM.

For `CC(=O)OC1C(CCCNC(=N)N)C(=O)N1C(C)=O` (stereo not shown) [XX, 4-Acetyloxy-3-quanidinopropyl-1-acetyl-2-azetidinone hydrochloride salt], the pIC50 [1] was 7.92, the “Thrombin k2 /ki (second order rate constant for inactivation of the enzyme)” value [1] was 4.2 × 10^7 m^-1 min^-1 and the pIC50 [2] was 7.92. For the same molecule, the IC (2-fold clotting time) [3] was 0.34 µM.

For `COC(=O)[C@H]1[C@H](CCCNC(=N)N)C(=O)N1S(=O)(=O)c1cccc2c(N(C)C)cccc12` (relative stereo) [III, trans-4-Methoxycarbonyl-3-(3-guanidinopropyl)-1-[(5-dimethylamino)-1-naphthalenesulfonyl]-2-azetidinone hydrochloride salt], the pIC50 [1] was 7.80, the “Thrombin k2 /ki (second order rate constant for inactivation of the enzyme)” value [1] was 2.1 × 10^7 m^-1 min^-1 and the pIC50 [2, 5] was 6.14. It also gave an IC (2-fold clotting time) [3] of 50 µM.

`CC(=O)N1CC(CCCNC(=N)N)C1=O` (stereo not shown) [VIII, 3-Guanidinopropyl-1-acetyl-2-azetidinone hydrochloride salt] showed a pIC50 [1] of 7.00.

With `CN(C)c1cccc2c(S(=O)(=O)N3CC(CCCNC(=N)N)C3=O)cccc12` (stereo not shown) [IX, 3-Guanidinopropyl-1-[(5-dimethylamino)-1-naphthanesulfonyl)]-2-azetidinone hydrochloride salt] the pIC50 [1] was 6.00, the “Thrombin k2 /ki (second order rate constant), cells with symbol *” value [1] was “*” and the IC (2-fold clotting time) [3] was 30 µM.

For `COC(=O)[C@H]1[C@H](CCCNC(=N)N)C(=O)N1S(C)(=O)=O.Cl` (relative stereo) [IV, trans-4-Methoxycarbonyl-3-(guanidinopropyl)-1-methylsulfonyl-2-azetidinone hydrochloride salt], the pIC50 [1] was 7.70, the “Thrombin k2 /ki (second order rate constant for inactivation of the enzyme)” value [1] was 1.5 × 10^6 m^-1 min^-1 and the pIC50 [2, 5] was 7.15.

In the case of `CC(=O)OC1C(CCCNC(=N)N)C(=O)N1C(=O)c1ccccc1` (stereo not shown) [XXII, 4-Acetyloxy-3-guanidinooropyl-1-phenylcarbonyl-2-azetidinone hydrochloride salt], the pIC50 [1] was 7.46, the “Thrombin k2 /ki (second order rate constant), cells with symbol *” value [1] was “*” and the IC (2-fold clotting time) [3] was 10.0 µM.

`CC(=O)N1C(=O)C(CCCNC(=N)N)C1C(=O)N1CCC[C@H]1C(=O)O` (stereo partly drawn) [XVIII, trans-4-[(2-Carboxy-1-pyrrolidinyl)carbonyl]-3-(3-guanidino)-procyl-1-acetyl-2-azetidinone hydrochloride salt] was tested, and the pIC50 [1] was 7.31, the “Thrombin k2 /ki (second order rate constant for inactivation of the enzyme)” value [1] was 4.3 × 10^6 m^-1 min^-1 and the IC (2-fold clotting time) [3] was 1.25 µM.

With `CC(=O)N1C(=O)[C@@H](CCCNC(=N)N)[C@@H]1C(=O)NCC(=O)O` (relative stereo) [Compound XIX, 4-[[(2-Hydroxy-2-oxoethyl)amino]carbonyl]-3-(3-guanidinopropyl)-1-acetyl-2-azetidinone hydrochloride salt] the pIC50 [1] was 7.92, the “Thrombin k2 /ki (second order rate constant for inactivation of the enzyme)” value [1] was 2.0 × 10^7 m^-1 min^-1 and the IC (2-fold clotting time) [3] was 0.43 µM. For the same molecule, the “Thrombin Induced Clotting Time (1:1 Control Plasma)” value ([4]; 0.5 hr. post dose, plasma diluted 1:1 with control rat plasma, hydrochloride salt, 50 mg/kg, in s) was 14.4 and 17.3, the “Thrombin Induced Clotting Time” value [4, 6] was 45.2 s and the “Thrombin Induced Clotting Time, terminated samples” value [4, 6] was “term. ("terminated sample" where a clot was unable to form after approximately 99 seconds)”. The “Thrombin Induced Clotting Time” value ([4]; 2 hr. post dose, undiluted plasma, per animal, hydrochloride salt, 50 mg/kg) was 12.9 s and 13.3 s and 14.4 s, the “Thrombin Induced Clotting Time” value ([4]; 5 hr. post dose, undiluted plasma, per animal, hydrochloride salt, 50 mg/kg) was 13.5 s and 13.6 s and 13.3 s and the “Clotting time ex vivo, result in words” value ([4]; three rats per group) was “prolonged clotting time”.

Work on `CC(=O)OC1C(CCCNC(=N)N)C(=O)N1C(=O)C(C)(C)C` (stereo not shown) [XXI, 4-Acetyloxy-3-guanidinopropyl-1-t-butylcarbonyl-2-azetidinone hydrochloride salt] yielded a pIC50 [1] of 7.13.
